Laboratory results from ChEMBL document CHEMBL1151014, “Tetrazole-substituted ureas as inhibitors of acyl-CoA:cholesterol O-acyltransferase (ACAT). A novel preparation of ureas from weakly nucleophilic amines” (Bioorg Med Chem Lett, 1996).

Key:
[1] = target: T1, Sterol O-acyltransferase 1 (Rattus norvegicus, UniProt O70536); test: Liver ACAT inhibitory activity was determined in vitro using [1-14C]oleolyl-CoA and microsomes isolated from the livers of cholesterol fed rats; parameters: species or system Microsome
T1 sequence (O70536 whole entry): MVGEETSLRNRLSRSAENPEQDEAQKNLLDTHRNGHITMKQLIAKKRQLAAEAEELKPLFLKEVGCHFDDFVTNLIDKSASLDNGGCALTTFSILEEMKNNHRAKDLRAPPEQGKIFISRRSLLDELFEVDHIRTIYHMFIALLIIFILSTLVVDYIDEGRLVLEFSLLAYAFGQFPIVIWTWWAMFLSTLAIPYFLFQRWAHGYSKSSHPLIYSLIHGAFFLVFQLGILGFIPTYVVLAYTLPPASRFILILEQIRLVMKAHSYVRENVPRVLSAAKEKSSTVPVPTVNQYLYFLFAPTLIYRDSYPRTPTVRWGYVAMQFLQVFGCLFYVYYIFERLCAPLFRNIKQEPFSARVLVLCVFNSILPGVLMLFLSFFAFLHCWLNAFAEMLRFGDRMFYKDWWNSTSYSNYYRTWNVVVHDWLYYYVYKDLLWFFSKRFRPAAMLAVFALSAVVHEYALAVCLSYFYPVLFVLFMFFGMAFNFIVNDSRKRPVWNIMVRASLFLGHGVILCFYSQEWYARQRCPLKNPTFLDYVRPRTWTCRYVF

Rattus norvegicus = test: Total serum cholesterol level was measured in rats after administering single high-fat, high cholesterol meal; assay type: functional
[2] = target: T1, Sterol O-acyltransferase 1; test: Liver Acyl coenzyme A:cholesterol acyltransferase inhibitory activity was determined in vitro using [1-14C]oleolyl-CoA and microsomes isolated from the livers of cholesterol fed rats; parameters: species or system Microsome
[3] = target: T2, Sterol O-acyltransferase 1 (Mus musculus, UniProt Q61263); test: Compound was tested for its ability to penetrate the cell wall and inhibit macrophage ACAT in cell culture using murine IC-21 macrophages (MAI); assay type: functional
T2 sequence (Q61263 whole entry): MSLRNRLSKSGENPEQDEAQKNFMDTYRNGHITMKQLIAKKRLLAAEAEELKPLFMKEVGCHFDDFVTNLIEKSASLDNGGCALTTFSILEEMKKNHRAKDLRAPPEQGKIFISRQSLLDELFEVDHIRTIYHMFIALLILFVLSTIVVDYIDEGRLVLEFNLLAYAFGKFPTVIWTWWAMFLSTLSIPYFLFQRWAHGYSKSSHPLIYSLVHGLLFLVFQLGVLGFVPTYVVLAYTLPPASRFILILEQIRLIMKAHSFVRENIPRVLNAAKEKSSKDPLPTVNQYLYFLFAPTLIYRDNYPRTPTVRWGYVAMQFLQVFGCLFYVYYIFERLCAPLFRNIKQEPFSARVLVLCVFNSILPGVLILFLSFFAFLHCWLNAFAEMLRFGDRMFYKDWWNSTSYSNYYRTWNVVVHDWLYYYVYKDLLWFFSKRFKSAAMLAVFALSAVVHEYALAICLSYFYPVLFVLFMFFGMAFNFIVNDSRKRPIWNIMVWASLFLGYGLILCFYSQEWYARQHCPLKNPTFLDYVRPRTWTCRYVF

Oryctolagus cuniculus [4] = test: Compound was tested for systemic bioactivity in plasma, drawn four hours post dose from cholesterol -fed rabbit, with rat liver microsomes (ABIO) at a dose of 22 mg/kg; assay type: functional; details: 4 h
Oryctolagus cuniculus [5] = test: Compound was tested for systemic bioactivity in plasma, drawn four hours post dose from cholesterol -fed rabbit, with rat liver microsomes (ABIO) at a dose of 24 mg/kg; assay type: functional; details: 4 h
[6] = target: T2, Sterol O-acyltransferase 1; test: Compound was tested for its ability to penetrate the cell wall and inhibit macrophage ACAT in cell culture using murine IC-21 macrophages (MAI) at 0.1 uM; not active; assay type: functional
Oryctolagus cuniculus [7] = test: Compound was tested for percent change in total serum cholesterol relative to progression control in an injured cholesterol-fed rabbit (ICFR) model at a dose of 5 mg/kg; assay type: functional
Oryctolagus cuniculus [8] = test: Anti-atherosclerosis activity was determined by measuring the thoracic aortic lesion coverage in an injured cholesterol-fed rabbit (ICFR) model at a dose of 25 mg/kg; assay type: functional, Aorta
Oryctolagus cuniculus [9] = test: Anti-atherosclerosis activity was determined by measuring the thoracic aortic lesion coverage in an injured cholesterol-fed rabbit (ICFR) model at a dose of 5 mg/kg; assay type: functional, Aorta
Oryctolagus cuniculus [10] = test: Compound was tested for percent change in total serum cholesterol relative to progression control in an injured cholesterol-fed rabbit (ICFR) model at a dose of 25 mg/kg; assay type: functional
Oryctolagus cuniculus [11] = test: Compound was tested for percent change in plasma triglycerides relative to progression control in an injured cholesterol-fed rabbit (ICFR) model at a dose of 25 mg/kg(p<0.10); assay type: functional
Oryctolagus cuniculus [12] = test: Compound was tested for percent change in plasma triglycerides relative to progression control in an injured cholesterol-fed rabbit (ICFR) model at a dose of 5 mg/kg; assay type: functional
Oryctolagus cuniculus [13] = test: Compound was tested for systemic bioactivity in plasma, drawn four hours post dose from cholesterol -fed rabbit, with rat liver microsomes (ABIO) at a dose of 25 mg/kg; assay type: functional; details: 4 h
Oryctolagus cuniculus [14] = test: Compound was tested for systemic bioactivity in plasma, drawn four hours post dose from cholesterol -fed rabbit, with rat liver microsomes (ABIO) at a dose of 5 mg/kg; assay type: functional; details: 4 h
Oryctolagus cuniculus [15] = test: Compound was tested for percent change in plasma triglycerides relative to progression control in an injured cholesterol-fed rabbit (ICFR) model at a dose of 25 mg/kg; assay type: functional
Oryctolagus cuniculus [16] = test: Anti-atherosclerosis activity was determined by measuring the thoracic aortic lesion coverage in an injured cholesterol-fed rabbit (ICFR) at a dose of 25 mg/kg; assay type: functional, Aorta

In the case of `CCCCCn1nnc(N(C(=O)Nc2c(OC)cc(OC)cc2OC)c2ccccc2)n1`, the IC50 [1] is reported as 0.45 µM and the “Delta TC” value (Rattus norvegicus) is reported as -43%.
In the case of `COc1cc(OC)c(NC(=O)N(c2ccccc2)c2nnn(CCCCCCCCCC(C)C)n2)c(OC)c1`, the IC50 [2] is reported as 0.04 µM.
For `CCCCCCCCCCCCn1nnc(N(CCCCCCC)C(=O)Nc2c(OC)cc(OC)cc2OC)n1`, the IC50 [2] was 0.29 µM and the “Delta TC” value (Rattus norvegicus) was -20%.
`CC(C)c1cccc(C(C)C)c1NC(=O)N(c1ccccc1)c1nnn(CCCCCCCCOC2CCCCO2)n1` (stereo not drawn) was tested, and the IC50 [2] was 0.016 µM and the “Delta TC” value (Rattus norvegicus) was 42%.
`COc1cc(OC)c(NC(=O)N(c2ccccc2)c2nnn(CCCCCCCCOC3CCCCO3)n2)c(OC)c1` (stereo not drawn) was tested, and the IC50 [2] was 0.041 µM and the “Delta TC” value (Rattus norvegicus) was -50%.
With `CCCCCCCCCCCCCCn1nnc(N(C(=O)Nc2c(OC)cc(OC)cc2OC)c2ccccc2)n1` the IC50 [2] was 0.071 µM and the “Delta TC” value (Rattus norvegicus) was -22%.
`CCCCCCCCCCCCn1nnc(N(Cc2ccccc2)C(=O)Nc2c(OC)cc(OC)cc2OC)n1` showed an IC50 [2] of 0.035 µM.
`CCCCCCCCCCCCn1nnc(N(C(=O)Nc2c(OC)cc(OC)cc2OC)c2ccccc2)n1` was tested, and the IC50 [1] was 0.061 µM, the IC50 [3] was 0.89 µM and the inhibition in vivo at 22 mg/kg (Oryctolagus cuniculus [4]) was 58%. The “Delta TC” value (Rattus norvegicus) was 74%.
`CCCCCCCCCCCCn1nnc(N(C(=O)Nc2c(C(C)C)cccc2C(C)C)C2CCCCC2)n1` showed an IC50 [2] of 0.031 µM, an IC50 [3] of 3.1 µM and an inhibition in vivo at 24 mg/kg (Oryctolagus cuniculus [5]) of 77%. The “Delta TC” value (Rattus norvegicus) was 10%.
In the case of `CCCCCCCCCCCCn1nnc(N(C(=O)Nc2c(OC)cc(OC)cc2OC)C2CCCCC2)n1`, the IC50 [1] is reported as 0.057 µM, the IC50 [6] is reported as “Not Active” and the “Delta TC” value (Oryctolagus cuniculus [7]) is reported as 22%. For the same compound, the Lesion coverage (Oryctolagus cuniculus [8]) was 44%, the Lesion coverage (Oryctolagus cuniculus [9]) was 49% and the “Delta TC” value (Oryctolagus cuniculus [10]) was 21%. The “Delta TG” value (Oryctolagus cuniculus [11]) was 68%, the “Delta TG” value (Oryctolagus cuniculus [12]) was 4% and the inhibition in vivo at 25 mg/kg (Oryctolagus cuniculus [13]) was 58%. For the same compound, the inhibition in vivo at 5 mg/kg (Oryctolagus cuniculus [14]) was 0% and the “Delta TC” value (Rattus norvegicus) was 67%.
For `CCCCCCCCCCCCn1nnc(N(C(=O)Nc2c(C(C)C)cccc2C(C)C)c2ccccc2)n1`, the IC50 [3] was 0.24 µM, the inhibition in vivo at 22 mg/kg (Oryctolagus cuniculus [4]) was 79% and the “Delta TC” value (Rattus norvegicus) was 52%.
For `CCCCCCCCCCC(C)(C)C(=O)Nc1c(OC)cc(OC)cc1OC` [CL-976], the “Delta TG” value (Oryctolagus cuniculus [15]) was -7%, the Lesion coverage (Oryctolagus cuniculus [16]) was 39% and the “Delta TC” value (Oryctolagus cuniculus [10]) was -24%. The inhibition in vivo at 25 mg/kg (Oryctolagus cuniculus [13]) was 73%.
